Laboratory results published in the supplement of paper PMC10883282.
Counter-ions that a name gives are not always drawn. ± gives the standard deviation of the averaged measurements.

Test system: RD-ES
Assay: relative viability vs DMSO control (72 h) (fraction); higher = more viable cells
How it was run: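 Densities for seeding sarcoma cell lines into 384-well plates were set to give 80–90% confluence. After 24 h, 2.5 µl of serially diluted compound from source plates of 10 mM to 0.0002 mM went in, and plates stayed 72 h at 37 °C in 5% CO2 with 0.1% DMSO vehicle and a 5 µM positive control. Percent growth from ATPLite readings, averaged over up to triplicate wells, served as relative viability, rescaled so 1 means full and 0 means none.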

SMILES	relative viability (0.00017 µM)	relative viability (0.00051 µM)	relative viability (0.00152 µM)	relative viability (0.00457 µM)	relative viability (0.01372 µM)	relative viability (0.04115 µM)	relative viability (0.1235 µM)	relative viability (0.3704 µM)	relative viability (1.111 µM)	relative viability (3.333 µM)	relative viability (10 µM)
C[C@@H]1COCCN1c1cc(-c2ccnn2C)c2ccnc(-c3ccn[nH]3)c2n1	0.987 ± 0.036	1.02 ± 0.044	1.04 ± 0.047	1.02 ± 0.04	1.01 ± 0.034	0.957 ± 0.0036	0.686 ± 0.026	0.279 ± 0.015	0.113 ± 0.096	0.155 ± 0.019	0.156 ± 0.0075
CCN1CCN(Cc2ccc(Nc3ncc(F)c(-c4cc(F)c5nc(C)n(C(C)C)c5c4)n3)nc2)CC1 [Abemaciclib]	0.975 ± 0.016	0.9649 ± 0.0077	0.988 ± 0.02	0.961 ± 0.027	0.908 ± 0.047	0.771 ± 0.038	0.638 ± 0.014	0.544 ± 0.015	0.526 ± 0.074	0.447 ± 0.057	0.292 ± 0.023
CCc1cc2c(cc1N1CCC(N3CCOCC3)CC1)C(C)(C)c1[nH]c3cc(C#N)ccc3c1C2=O [Alectinib]	0.9941 ± 0.0039	0.997 ± 0.011	0.993 ± 0.016	0.997 ± 0.025	0.988 ± 0.026	1 ± 0.029	1.03 ± 0.039	0.988 ± 0.036	1.04 ± 0.029	1.04 ± 0.014	1.03 ± 0.034
Cc1nc(NC(=O)N2CCC[C@H]2C(N)=O)sc1-c1ccnc(C(C)(C)C(F)(F)F)c1 [Alpelisib]	0.955 ± 0.069	0.949 ± 0.05	0.95 ± 0.05	0.944 ± 0.046	0.894 ± 0.017	0.852 ± 0.028	0.733 ± 0.025	0.641 ± 0.029	0.559 ± 0.0059	0.485 ± 0.025	0.375 ± 0.009
Cn1cc(-c2cc3c(N4CCN(c5ncc([C@@](C)(N)c6ccc(F)cc6)cn5)CC4)ncnn3c2)cn1 [Avapritinib]	0.927 ± 0.028	0.928 ± 0.034	0.934 ± 0.015	0.922 ± 0.026	0.936 ± 0.02	0.932 ± 0.013	0.9089 ± 0.0059	0.884 ± 0.025	0.84 ± 0.044	0.787 ± 0.047	0.716 ± 0.012
CC(C)NC(=O)C1CCC(n2c(NC(=O)c3ccc(F)cc3)nc3ccc(CN4CCC(C(C)(C)O)CC4)cc32)CC1 (stereo not drawn) [Belizatinib]	1.01 ± 0.025	1.02 ± 0.021	0.997 ± 0.021	1.02 ± 0.013	1.03 ± 0.021	0.995 ± 0.021	0.907 ± 0.01	0.648 ± 0.02	0.455 ± 0.014	0.395 ± 0.016	0.261 ± 0.009
Cn1cnc2c(F)c(Nc3ccc(Br)cc3F)c(C(=O)NOCCO)cc21 [Binimetinib]	0.9413 ± 0.0039	0.9487 ± 0.0073	0.976 ± 0.024	0.969 ± 0.026	0.942 ± 0.025	0.938 ± 0.053	0.962 ± 0.043	0.919 ± 0.061	0.883 ± 0.026	0.925 ± 0.034	0.879 ± 0.042
Nc1cc(C(F)(F)F)c(-c2cc(N3CCOCC3)nc(N3CCOCC3)n2)cn1 [Buparlisib]	0.97 ± 0.037	0.956 ± 0.025	0.946 ± 0.026	0.949 ± 0.021	0.935 ± 0.013	0.922 ± 0.01	0.864 ± 0.0088	0.717 ± 0.021	0.341 ± 0.0073	0.102 ± 0.0037	0.0722 ± 0.0025
CNC(=O)c1ccc(-c2cnc3ncc(Cc4ccc5ncccc5c4)n3n2)cc1F [Capmatinib]	0.992 ± 0.014	1.005 ± 0.0083	0.9871 ± 0.0074	0.994 ± 0.017	0.98 ± 0.021	1 ± 0.018	1.01 ± 0.023	1.03 ± 0.024	1.03 ± 0.025	1.02 ± 0.011	1 ± 0.028
COc1cc2c(Oc3ccc4[nH]c(C)cc4c3F)ncnc2cc1OCCCN1CCCC1 [Cediranib]	0.96 ± 0.026	0.985 ± 0.038	0.95 ± 0.023	0.958 ± 0.018	0.992 ± 0.023	0.961 ± 0.017	0.962 ± 0.01	0.9773 ± 0.0095	0.887 ± 0.013	0.971 ± 0.025	0.943 ± 0.022
COc1c(OCCCN2CCOCC2)ccc2c1N=C(NC(=O)c1cnc(N)nc1)N1CCN=C21 [Copanlisib]	0.977 ± 0.031	0.932 ± 0.023	0.947 ± 0.056	0.638 ± 0.087	0.571 ± 0.05	0.494 ± 0.023	0.344 ± 0.013	0.218 ± 0.0085	0.0703 ± 0.0047	0.007 ± 0.00036	0.0101 ± 0.0011
CN1CCN(c2ccc3nc(-c4c(N)c5c(F)cccc5[nH]c4=O)[nH]c3c2)CC1 [Dovitinib]	0.955 ± 0.025	0.944 ± 0.067	0.949 ± 0.024	0.943 ± 0.026	0.937 ± 0.014	0.893 ± 0.021	0.899 ± 0.045	0.829 ± 0.027	0.575 ± 0.013	0.24 ± 0.019	0.0296 ± 0.0072
COc1cccc2c1C(=O)c1c(O)c3c(c(O)c1C2=O)C[C@@](O)(C(=O)CO)C[C@@H]3O[C@H]1C[C@H](N)[C@H](O)[C@H](C)O1 [Doxorubicin Hydrochloride]	1.01 ± 0.032	1.03 ± 0.037	1.02 ± 0.014	1 ± 0.025	0.749 ± 0.0091	0.374 ± 0.014	0.155 ± 0.011	0.036 ± 0.0064	0.0178 ± 0.0034	0.00453 ± 5.8e-05	0.0075 ± 0.00089
Cc1cnc(Nc2ccc(OCCN3CCCC3)cc2)nc1Nc1cccc(S(=O)(=O)NC(C)(C)C)c1 [Fedratinib]	1.01 ± 0.013	1 ± 0.036	1.02 ± 0.032	1.01 ± 0.027	0.98 ± 0.034	0.972 ± 0.024	0.904 ± 0.026	0.7114 ± 0.0066	0.145 ± 0.0063	0.00883 ± 0.0011	0.00587 ± 0.0018
C=CC(=O)N1CCC[C@@H](n2nc(-c3ccc(Oc4ccccc4)cc3)c3c(N)ncnc32)C1 [Ibrutinib]	0.985 ± 0.032	0.967 ± 0.043	0.993 ± 0.05	0.97 ± 0.038	0.976 ± 0.04	0.988 ± 0.032	0.957 ± 0.034	0.969 ± 0.015	0.989 ± 0.04	0.957 ± 0.031	0.882 ± 0.013
CC[C@H](Nc1ncnc2[nH]cnc12)c1nc2cccc(F)c2c(=O)n1-c1ccccc1 [Idelalisib]	0.9939 ± 0.0089	0.99 ± 0.033	0.977 ± 0.04	0.984 ± 0.037	0.977 ± 0.033	0.98 ± 0.019	0.982 ± 0.028	0.97 ± 0.027	0.909 ± 0.026	0.88 ± 0.034	0.744 ± 0.019
O=C(Cc1ccc(-c2ccc(OCCN3CCOCC3)cc2)cn1)NCc1ccccc1 [KX2-391]	0.984 ± 0.025	1.002 ± 0.0063	1.01 ± 0.029	0.996 ± 0.017	0.973 ± 0.022	0.674 ± 0.021	0.0817 ± 0.0038	0.0547 ± 0.0048	0.0489 ± 0.0023	0.0417 ± 0.0023	0.0395 ± 0.0014
O=C(Nc1cnn2ccc(N3CCC[C@@H]3c3cc(F)ccc3F)nc12)N1CC[C@H](O)C1 [Larotrectinib]	0.95 ± 0.031	0.963 ± 0.01	0.978 ± 0.05	0.961 ± 0.024	0.9532 ± 0.0046	0.976 ± 0.016	0.961 ± 0.013	0.964 ± 0.014	0.968 ± 0.022	0.931 ± 0.052	0.932 ± 0.042
